Source: patent US20070191490A1, “Withacnistin compounds for treatment of cancer” (priority 2006, published 2007)
“Also recorded” adds a separate entry of the source.

How the values were obtained:
phosphotyrosine-STAT3 = assay: Inhibition of phosphotyrosine-STAT3 levels in tumor cell lines (Western blotting); format: cell-based, human; details: for levels of P-STAT3: 10 μM, 4 hours; for IC50: Wit tested as withacnistin mixture; for P-STAT3 levels: A549 cells (FIG. 8A); for potency compared with the withacnistin mixture (P-STAT3 suppression): A549 and MDA-MB-468 cells
Experimental: (§1) Western blotting. Treated cell samples were lysed in 30 mM HEPES, pH 7.5, 10 mM NaCl, 5 mM MgCl2, 25 mM NaF, 1 mM EGTA, 1% Triton X-100, 10% glycerol, 2 mM sodium orthovanadate, 10 μg/ml aprotinin, 10μ/ml soybean trypsin inhibitor, 25 μg/ml leupeptin, 2 mM PMSF, and 6.4 mg/ml p-nitrophenylphosphate. Phospho-STAT3, phospho-AKT, phospho-Src, and phospho-p42/p44 MAPK antibodies were obtained from Cell Signaling Technologies (Cambridge, Mass., USA). Phospho-JNK and whole STAT3 antibodies were purchased from Santa Cruz Biotechnology (Santa Cruz, Calif., USA); phospho-JAK2 antibody came from Upstate Biotechnology (Lake Placid, N.Y., USA). Membranes were blocked in either 5% milk in phosphate-buffered saline (PBS), pH 7.4, containing 0.1% Tween-20 (PBS-T) or 1% BSA in tris-buffered saline (TBS), pH 7.5, containing 0.1% Tween-20 (TBS-T). Phospho-specific antibodies (excepting P-MAPK and P-JNK) were incubated in 1% BSA in TBS-T while all other antibodies were diluted in 5% milk in PBS-T for either 2 h at room temperature or overnight at 4° C. HRP-conjugated secondary antibodies (Jackson ImmunoResearch, West Grove, Pa., USA) were diluted in 5% milk in either PBS-T or TBS-T at 1:1000 dilution for 1 h at room temperature. Western blots were visualized using enhanced chemiluminescence.
(§2) To this end, A549 cells (a human non-small-cell lung carcinoma line) were treated with either vehicle, cucurbitacin analogs A, B, E, or I, or withacnistin mixture (10 ∥M) for 4 hours and the cell lysates processed for Western blotting with antiphosphotyrosine STAT3 (Y705) antibody or antiphosphotyrosine JAK2 (Y1007, Y1008) antibody as described under Materials and Methods.
(§3) As further support of the specific antiphosphotyrosine STAT3, but not antiphosphotyrosine JAK2, activity of withacnistin, A549 cells, as well as two breast carcinoma cell lines (MDA-MB-435 and MDA-MB-468) that also express constitutively activated JAK2 and STAT3, were treated with the withacnistin mixture at various concentrations, and determined IC50 values of inhibition of STAT3 and JAK2 activation.

phosphotyrosine-JAK2 = assay: Inhibition of phosphotyrosine-JAK2 levels in tumor cell lines (Western blotting); format: cell-based, human; details: for levels of P-JAK2: 10 μM, 4 hours; for IC50: Wit tested as withacnistin mixture; for P-JAK2 levels: A549 cells (FIG. 8A)
Experimental: as §1, §2, §3

STAT3 = assay: Total STAT3 levels (STAT3 immunoprecipitation / immunoblot); format: cell-based, human; details: A549 cells
Experimental: STAT3 immunoprecipitation. A549 cells were treated for 4 hour with vehicle or the withacnistin mixture, then lysed in 150 mM HEPES, pH 7.5, 150 mM NaCl, 1 mM EDTA, 0.5% NP-40, 10% glycerol, 5 mM NaF, 1 mM DTT, 1 mM PMSF, 2 mM sodium orthovanadate, and 5 μg/ml leupeptin. Sample lysates were collected and cleared, then 500 μg of lysate was immunoprecipitated with 50 ng STAT3 antibody overnight at 4° C., then rocked with 25 μl Protein A/G PLUS agarose (Santa Cruz Biotechnology) for 1 hour at 4° C. Samples were washed four times with lysis buffer, then boiled in 2×SDS-PAGE sample buffer and run on 10% SDS-PAGE gel. Protein was transferred to nitrocellulose then blotted as above for both phospho-specific STAT3 and STAT3.
as §3, with “activation. […] In all three cell lines, JAK2 activation was not inhibited at withacnistin concentrations as high as 10 μM. […] Thus, in all three cell lines, withacnistin (Wit) inhibits specifically STAT3 but not JAK2 activation and Cuc A inhibits JAK2 but not STAT3 activation whereas Cuc I inhibits the activation of both STAT3 and JAK2.” for “activation.”

A549 tumors = assay: TUNEL immunohistochemistry of A549 tumor sections; format: in vivo, nude mice; details: 1 mg/kg/day, control 0.4±0.1%
Experimental: TUNEL immunohistochemistry. Tumors were harvested, […], and dewaxed as described for P-STAT3 immunohistochemistry. Tissue sections (5 μm) were digested for 10 minutes with 25 μg/ml proteinase K in PBS and then washed thoroughly. Peroxidases were quenched with 3% hydrogen peroxide in PBS and washed. Sections were equilibrated with equilibration buffer, then incubated in 30% TdT enzymes/70% digoxigenin nucleotidyl reaction buffer for 1 hour at 37° C. in a humidified chamber. The labeling reaction was stopped in stop/wash buffer with moderate shaking. Slides then were placed on the Dako Autostainer and incubated with antidigoxigenin-peroxidase (DakoCytomation California, Inc.) for 30 minutes using DAB substrate. Sections were counterstained with methyl green (Vector Laboratories), dehydrated through ascending alcohol, cleared, and mounted with resinous mounting medium. The quantification was performed by counting both the TUNEL-positive and -negative cells on slides representative of eight tumors and significance was determined by Student's t-test.
To determine whether phosphotyrosine STAT3 is targeted by withacnistin in vivo, and to determine if the results seen in cell culture concerning induction of apoptosis were occurring in tumors from animals treated with withacnistin, on the termination day of the A549 antitumor experiment, tumors from animals treated with Cuc A, Cuc I, and the withacnistin mixture, as well as vehicle control, were extracted and fixed in 10% neutral-buffered formalin and then processed into paraffin blocks for tissue sectioning. These tissue sections were stained separately with either TUNEL for determination of apoptosis, or phosphotyrosine STAT3 to determine if the signaling protein is inhibited in the tumors.

Row | Structure (SMILES) | levels of P-STAT3 (phosphotyrosine-STAT3; A549 cells) | IC50 (phosphotyrosine-STAT3; A549 cells) | IC50 (phosphotyrosine-STAT3; MDA-MB-435 cells) | IC50 (phosphotyrosine-STAT3; MDA-MB-468 cells) | levels of P-JAK2 (phosphotyrosine-JAK2; A549 cells) | IC50 (phosphotyrosine-JAK2; A549 cells) | IC50 (phosphotyrosine-JAK2; MDA-MB-435 cells) | IC50 (phosphotyrosine-JAK2; MDA-MB-468 cells) | total STAT3 levels (STAT3; 10 μM, 4 hours) | TUNEL-positive cells (A549 tumors) | P-STAT3 levels (phosphotyrosine-STAT3) | P-JAK2 levels (phosphotyrosine-JAK2) | P-STAT3 (phosphotyrosine-STAT3; A549 and MDA-MB468 cells, 4-hour treatment (FIGS. 7A, 7B)) | potency compared with the withacnistin mixture (P-STAT3 suppression) (phosphotyrosine-STAT3; listed as W) | potency compared with the withacnistin mixture (P-STAT3 suppression) (phosphotyrosine-STAT3; listed as pure withacnistin) | total STAT3 levels (STAT3; by 24 hours, data not shown)
1 | CC(=O)OC(C)(C)/C=C/C(=O)[C@](C)(O)[C@H]1[C@H](O)C[C@@]2(C)[C@@H]3CC=C4[C@@H](C[C@H](O)C(=O)C4(C)C)[C@]3(CO)C(=O)C[C@]12C [Cuc A, cucurbitacin A] | had no effect; also recorded: little inhibitory activity | > 10000 nM | > 10000 nM | > 10000 nM | suppressed; also recorded: potently inhibited | 1500 ± 700 nM | 650 ± 50 nM | 860 nM | does not affect | 0.3±0.2% |  |  |  |  |  | 
2 | CC(C)(O)/C=C/C(=O)[C@](C)(O)[C@H]1[C@H](O)C[C@@]2(C)[C@@H]3CC=C4[C@@H](C=C(O)C(=O)C4(C)C)[C@]3(C)C(=O)C[C@]12C [Cuc I, cucurbitacin I] | inhibited | 800 ± 700 nM | 4600 ± 1900 nM | 7500 ± 1500 nM | inhibited | 250 ± 90 nM | 180 ± 70 nM | 400 ± 260 nM | does not affect | 10.5±3.0% | suppressed the levels of both | suppressed the levels of both |  |  |  | 
3 | CC(=O)OC[C@]12CC[C@H]3[C@@H](C[C@H]4O[C@]45[C@@H](O)C=CC(=O)[C@]35C)[C@@H]1CC[C@@H]2[C@H](C)[C@H]1CC(C)=C(C)C(=O)O1 [withacnistin] |  | 3700 ± 1700 nM | 900 ± 600 nM | 1400 ± 700 nM |  | > 10000 nM | > 10000 nM | > 10000 nM | without affecting | 14.3±2.7% | suppressed | but not P-JAK2 | inhibit | slightly more potent than WM | more potent than the withacnistin mixture | suppressed
